Results from patent EP0846269B1, “A METHOD OF DETERMINING THE DEGREE OF AGGREGATION OF THE BETA A4 PEPTIDE” (Aventis Pharmaceuticals Inc., priority 1995, dated 1997).
Residues, ends and D or L forms follow the SMILES beside them.

Target: β-amyloid (also known as βA4) peptide (Homo sapiens, UniProt P05067)
Assay: Bradford dye (Coomassie Brilliant Blue G-250) assay of β-amyloid peptide aggregation, absorbance at 595 nm
Format: biochemical
Conditions: for inhibition at 500 µM: 500 µM compound; for inhibition at 1000 µM: 1 mM (or 1000 µM) compound
Protocol: β-amyloid (also known as βA4) peptide was dissolved in 100% dimethylsulfoxide (DMSO) at 10 mg/mL (or 2500 µM) concentration. The resultant solution was diluted to 1 mg/ml (or 250 µM) stock in Phosphate Buffered Saline (PBS), pH 7.4, just prior to setting up the assay and dispensed in individual sample wells of a Corning 96-well plate at 16µL per well (i.e. a final concentration of 25 µM). All treatments were done in triplicate.
In this example, the candidate compound was added to the test wells at three different concentrations (250µM, 500µM and 1mM). Total volume in each well was brought up to 160µL with PBS. For untreated control wells, no compound was added to the β-amyloid peptide, and the total volume was made to 160µL with PBS. The plates were sealed with parafilm and incubated at 37°C for 48 hours.
(§1) At the end of the incubation period, the plates were taken out and 25µL of Bio-Rad protein assay dye reagent (Bradford dye) was added to all the wells with samples. A standard curve was also set up at this time for estimation of fresh (also considered as unaggregared) peptide absorbance. The dye was mixed by pipeting and the plates quickly spun at 2500 rpm to remove bubbles.
The absorbance was read at 595 nm in a Dynatech MR5000 plate reader 15 minutes after adding the dye. The percent decrease in aggregation of β-amyloid due to the addition of candidate compound A41920t which is a 8-mer peptide of sequence Glutamine-Lysine-Leucine-Valine-Threonine-Threonine-Alanine-Glutamate ([…]) was calculated from the difference between untreated aggregated peptide and the treated aggregated peptide.
The procedure of Example 1 was repeated except that hydrogen peroxide (10µL of 30% stock) was added to the wells in a 96-well plate with 16µL of the 1 mg/mL β-amyloid stock. The final volume was then brought up to 160µL by adding 134µL of PBS to these wells. The plate was sealed and incubated at 37°C for 48 hours.
as §1, with “samples as in Example 1.” for “samples.”, “again used” for “also set up at this time”, “unaggregated)” for “unaggregared)”
The absorbance was read at 595nm in the Dynatech MR5000 plate reader 15 minutes after adding the dye. The amount of aggregation was estimated by subtracting background and taking the difference between the fresh and hydrogen peroxide treated β-amyloid readings. The difference was expressed as percent over fresh or unaggregated peptide.

[1] = 25 µM β-amyloid, PBS pH 7.4, 37°C, 48 hours, read-out: percent decrease in aggregation of β-amyloid

Chain of β-amyloid (also known as βA4) peptide (P05067 672-713 limits assumed): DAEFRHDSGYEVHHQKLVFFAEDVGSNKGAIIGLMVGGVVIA

SMILES	inhibition at 500 µM [1]	inhibition at 1000 µM [1]	inhibition at 250 µM (250 µM compound, 25 µM β-amyloid, PBS pH 7.4, 37°C, 48 hours, read-out: percent decrease in aggregation of β-amyloid)	percentage of aggregation (10µL of 30% stock in 160µL, 37°C, after 48 hrs, percent over fresh or unaggregated peptide)
CCCn1cnc2c1c(=O)n(CCCCC(C)=O)c(=O)n2C [propentofylline, 1-(5'-oxohexyl)-3-methyl-7-propyl-2,6-(1H,3H)-purinedione]	29.7%	37.4%	–	–
CC(C)CC(NC(=O)C(CCCCN)NC(=O)C(N)CCC(N)=O)C(=O)NC(C(=O)NC(C(=O)NC(C(=O)NC(C)C(=O)NC(CCC(=O)O)C(=O)O)C(C)O)C(C)O)C(C)C (stereo not drawn) [A41920t, Glutamine-Lysine-Leucine-Valine-Threonine-Threonine-Alanine-Glutamate (QKLVTTAE)] (H-QKLVTTAE-OH; configuration not given here)	52.4%	32.3%	48.1%	–
OO [hydrogen peroxide]	–	–	–	97.7%
